The source of these data is patent publication US8415373B2, “Isoquinolinone derivatives as NK3 antagonists” (H. Lundbeck A/S, priority 2008, dated 2013).

The structures appear in SMILES notation.

For data set [1], the target named is T1, human NK3 receptor (Homo sapiens, UniProt P29371).
T1 construct: expressed in transfected cells
T1 sequence (P29371 1-465): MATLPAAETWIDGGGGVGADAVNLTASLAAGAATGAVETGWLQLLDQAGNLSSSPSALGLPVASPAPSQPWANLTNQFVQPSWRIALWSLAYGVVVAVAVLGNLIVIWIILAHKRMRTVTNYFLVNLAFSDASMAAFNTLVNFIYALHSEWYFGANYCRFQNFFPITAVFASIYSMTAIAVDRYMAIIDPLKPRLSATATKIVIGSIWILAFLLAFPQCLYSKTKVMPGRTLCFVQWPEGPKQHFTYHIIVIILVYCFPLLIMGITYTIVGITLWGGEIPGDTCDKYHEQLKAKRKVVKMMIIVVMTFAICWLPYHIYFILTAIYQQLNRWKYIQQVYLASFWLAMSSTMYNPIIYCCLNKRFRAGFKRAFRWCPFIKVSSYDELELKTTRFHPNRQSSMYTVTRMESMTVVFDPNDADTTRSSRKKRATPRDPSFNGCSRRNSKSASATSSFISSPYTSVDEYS
Put plainly: NK3 receptor binding assay (SPA-based competition binding, 125I-NKB). Conditions: read-out: Affinity (Ki/nM). The method, then:
Membranepreparation: BHK cells stably expressing the human NK3 receptor were seeded in harvesting plates in Dulbeccos MEM containing GlutaMax (862 mg/l), 1 mM sodium pyruvate, 10% fetal calf serum, 1% Pen/Strep, 1 mg/ml G418 and were grown at 34° C. in a humidified atmosphere containing 10% CO2. To increase receptor expression, 10 μM trichotatin A was added to the media 24 hours before harvest of the cells at a confluency of app 90%. Prior to the harvesting, the cells were washed twice with PBS without Mg^2+ og Ca^2+ and subsequently scrapped of in 10 ml PBS pr harvesting plate. The cell suspension were centrifuged at 1500×G in three minutes before resuspension in 15 mM Tris-HCl pH 7.5 buffer containing 2 mM MgCl2; 0.3 mM EDTA and 1 mM EGTA (buffer A). The cell suspension was homogenised and subsequently centrifuged at 40000×G in 30 minutes. The membrane-pellet was resuspended in buffer A containing 250 mM sucrose, aliquoted and stored at −80° C.
Affinity assay description: The assay was performed as a SPA-based competition-binding assay in a 50 mM Tris pH 7.4 assay buffer containing 120 mM NaCl, 3 mM MnCl2, 40 μg/ml bacitracin, 2 μg/ml Chymostatin, 1 μg/ml Phosphoramidon and 4 μg/ml Leupeptin. […] The assay plate was subsequently under agitation incubated for 90 min at RT. The plate was centrifugated 10 minutes at 500×G and counted in a topcounter 5 minutes pr well.

The subject of data set [2] is schizophrenics. Particulars: cited from earlier work.
The conditions of data set [3]: Nature reviews, 4, 967-975, 2005; cited from earlier work.
For data set [4] the following is noted: Nature reviews, 4, 967-975, 2005; cited from earlier work. This is another data set of the same source.

Consider `CC[C@H](NC(=O)c1c(C)n(Nc2ccccc2)c(=O)c2ccccc12)c1ccccc1` [Example 1a, 3-Methyl-1-oxo-2-phenylamino-1,2-dihydro-isoquinoline-4-carboxylic acid ((S)-1-phenyl-propyl)-amide], for which, in data set [1], the Ki was 200 nM.

`Cc1c(C(=O)N[C@H](c2cccc(F)c2)C2CC2)c2cccc(F)c2c(=O)n1Cc1ccoc1` [Example 2a, 8-Fluoro-2-furan-3-ylmethyl-3-methyl-1-oxo-1,2-dihydro-isoquinoline-4-carboxylic acid [(S)-cyclopropyl-(3-fluoro-phenyl)-methyl]-amide]: the Ki in data set [1] stood at 28 nM.

For `Cc1nc(Cn2c(C)c(C(=O)N[C@H](c3cccc(F)c3)C3CCC3)c3cccc(F)c3c2=O)cs1` [Example 2ac, 8-Fluoro-3-methyl-2-(2-methyl-thiazol-4-ylmethyl)-1-oxo-1,2-dihydro-isoquinoline-4-carboxylic acid [(S)-cyclobutyl-(3-fluoro-phenyl)-methyl]-amide], the Ki in data set [1] was determined as 95 nM.

As for `CCn1ccnc1Cn1c(C)c(C(=O)N[C@H](c2cccc(F)c2)C2CCC2)c2cccc(F)c2c1=O` [Example 2ah, 2-(1-Ethyl-1H-imidazol-2-ylmethyl)-8-fluoro-3-methyl-1-oxo-1,2-dihydro-isoquinoline-4-carboxylic acid [(S)-cyclobutyl-(3-fluoro-phenyl)-methyl]-amide], in data set [1], the Ki came to 43 nM.

As for `Cc1c(C(=O)N[C@H](c2cccc(F)c2)C2CC2)c2cccc(F)c2c(=O)n1Cc1cccnc1` [Example 2b, 8-Fluoro-3-methyl-1-oxo-2-pyridin-3-ylmethyl-1,2-dihydro-isoquinoline-4-carboxylic acid [(S)-cyclopropyl-(3-fluoro-phenyl)-methyl]-amide], the Ki in data set [1] was 350 nM.

For `Cc1c(C(=O)N[C@H](c2cccc(F)c2)C2CC2)c2cccc(F)c2c(=O)n1Cc1cc(F)ccc1F` [Example 2d, 2-(2,5-Difluoro-benzyl)-8-fluoro-3-methyl-1-oxo-1,2-dihydro-isoquinoline-4-carboxylic acid [(S)-cyclopropyl-(3-fluoro-phenyl)-methyl]-amide], in data set [1], the Ki was 180 nM.

In the case of `Cc1c(C(=O)N[C@H](c2cccc(F)c2)C2CC2)c2cccc(F)c2c(=O)n1Cc1ccsc1` [Example 2g, 8-Fluoro-3-methyl-1-oxo-2-thiophen-3-ylmethyl-1,2-dihydro-isoquinoline-4-carboxylic acid [(S)-cyclopropyl-(3-fluoro-phenyl)-methyl]-amide], the Ki in data set [1] is 7.8 nM.

Regarding `Cc1cc(Cn2c(C)c(C(=O)N[C@H](c3cccc(F)c3)C3CCC3)c3cccc(F)c3c2=O)no1` [Example 2m, 8-Fluoro-3-methyl-2-(5-methyl-isoxazol-3-ylmethyl)-1-oxo-1,2-dihydro-isoquinoline-4-carboxylic acid [(S)-cyclobutyl-(3-fluoro-phenyl)-methyl]-amide], the Ki in data set [1] was 33 nM.

For the compound `Cc1nnc(Cn2c(C)c(C(=O)N[C@H](c3cccc(F)c3)C3CCC3)c3cccc(F)c3c2=O)[nH]1` [Example 2o, 8-Fluoro-3-methyl-2-(5-methyl-4H-[1,2,4]triazol-3-ylmethyl)-1-oxo-1,2-dihydro-isoquinoline-4-carboxylic acid [(S)-cyclobutyl-(3-fluoro-phenyl)-methyl]-amide], the Ki in data set [1] was determined as 120 nM.

As to `Cc1cc(Cn2c(C)c(C(=O)N[C@H](c3cccc(F)c3)C3CCC3)c3cccc(F)c3c2=O)[nH]n1` [Example 2p, 8-Fluoro-3-methyl-2-(5-methyl-2H-pyrazol-3-ylmethyl)-1-oxo-1,2-dihydro-isoquinoline-4-carboxylic acid [(S)-cyclobutyl-(3-fluoro-phenyl)-methyl]-amide], the Ki in data set [1] worked out at 28 nM.

On to `Cc1c(C(=O)N[C@H](c2cccc(F)c2)C2CCC2)c2cccc(F)c2c(=O)n1Cc1cocn1` [Example 2t, 8-Fluoro-3-methyl-2-oxazol-4-ylmethyl-1-oxo-1,2-dihydro-isoquinoline-4-carboxylic acid [(S)-cyclobutyl-(3-fluoro-phenyl)-methyl]-amide], for which the Ki in data set [1] was found to be 12 nM.

Turning to `Cc1nonc1Cn1c(C)c(C(=O)N[C@H](c2cccc(F)c2)C2CCC2)c2cccc(F)c2c1=O` [Example 2v, 8-Fluoro-3-methyl-2-(4-methyl-furazan-3-ylmethyl)-1-oxo-1,2-dihydro-isoquinoline-4-carboxylic acid [(S)-cyclobutyl-(3-fluoro-phenyl)-methyl]-amide], in data set [1], the Ki turned out to be 6.6 nM.

Consider `Cc1c(C(=O)N[C@H](c2ccc(F)c(F)c2)C2CCC2)c2cccc(F)c2c(=O)n1Cc1ncco1` [Example 4b, 8-Fluoro-3-methyl-2-oxazol-2-ylmethyl-1-oxo-1,2-dihydro-isoquinoline-4-carboxylic acid [(S)-cyclobutyl-(3,4-difluoro-phenyl)-methyl]-amide], for which, in data set [1], the Ki was 4 nM.

Consider `CC(=O)N(C)C1(c2ccccc2)CCN(CCC[C@]2(c3ccc(Cl)c(Cl)c3)CCCN(C(=O)c3ccccc3)C2)CC1` [Osanetant, osanetant], for which the “effect versus placebo in clinical trials, in particular on positive symptoms of psychosis” value in data set [2] (Am. J. Psychiatry, 161, 2004, 975-984) was “superior to placebo”. In addition, the solubility entry in data set [3] was “poor”. In data set [4], the bioavailability entry was “poor”, the blood-brain barrier penetration entry is given as “poor” and the clearance result is listed as “relatively high”.

Take `CC[C@H](NC(=O)c1c(O)c(-c2ccccc2)nc2ccccc12)c1ccccc1` [talnetant]: the “effect on cognitive behaviour of schizophrenics in clinical trials” value in data set [2] (Curr. Opion. Invest. Drug, 6, 717-721, 2005) is “ameliorate”. The solubility result in data set [3] is on record as “poor”. Further, in data set [4], the bioavailability result is listed as “poor”, the blood-brain barrier penetration result is listed as “poor” and the clearance result is recorded as “relatively high”.
